pIC50: −log10 of the molar value.
Assays:
[1] = system: APP gencDNAs in CHO cells; test: Induction of APP gencDNAs in APP 751-transfected CHO cells treated with hydrogen peroxide, genomic DNA PCR; assay type: cell-based; conditions: AZT 100 μM and ABC 10 μM given together, APP 751 transfection, hydrogen peroxide 0, 5 or 50 μM, FIG. 20B
Experimental: The method is graphically represented in FIG. 20A. CHO cells were serum-deprived for 2 days, followed by addition of reverse transcriptase (RT) inhibitors azidothymidine (AZT, 100 μM) and abacavir (ABC, 10 μM) (Tocris, Minneapolis, Minn.) until the end of the experiment. Medium was changed daily with fresh RT inhibitors. Cells were transfected with APP 751 by GenJet (SignaGen Laboratories, Gaithersburg, Md.) on day 3, then on day 4 cells were treated with 0 μM, 5 μM, or 50 μM of hydrogen peroxide (Fisher Scientific) for 2 hrs. After 1 day, cells were collected and genomic DNA was extracted for PCR analysis.

[2] = system: reverse transcriptase activity in CHO cell lysate; test: In vitro reverse transcriptase activity assay in CHO cell lysate; assay type: biochemical; conditions: four independent experiments, FIG. 20E, read-out: IC50, decrease of reverse transcriptase activity
Experimental: In one example, lysates were prepared in reverse transcriptase disruption buffer and contained Complete™, EDTA-free Protease Inhibitor Cocktail (Sigma-Aldrich, St. Louis, Mo.) and PhosSTOP™ phosphatase inhibitors (Sigma-Aldrich, St. Louis, Mo.). One microgram of extract was used in the reverse transcription step of the assay. Reverse transcription was carried out at 37° C. for 45 min, followed by 15 min at 70° C. The RT product of this first step was assayed in triplicate by quantitative PCR. Levels of reverse transcription activity were determined by the Delta Cq method, compared to the activity in negative controls (water and no nucleotides) that were given Cq scores of 40. 1×10^5 picounits of SuperScript™ II Reverse Transcriptase (ThermoFisher Scientific) were used as a positive control for the assay. Lysates for heat inactivation experiments were incubated for 15 min at 70° C. prior to the reverse transcription step. For inhibitor experiments, lysates were incubated with inhibitor in the presence of all the components of the reaction except for dNTPs. After 10 min at room temperature, dNTPs were added and the reaction was incubated at 37° C. as above. AZT-TP was purchased from TriLink Biotechnologies (San Diego, Calif.).
In another example, the in vitro reverse transcriptase activity assay was conducted with reagents and protocol as shown in Tables 8-11.

Molecule | production of APP gencDNAs under nucleoside reverse transcriptase inhibitors [1] | pIC50 [2]
Nc1nc(NC2CC2)c2ncn([C@H]3C=C[C@@H](CO)C3)c2n1 [abacavir] | also required to produce gencDNAs | –
azidothymidine triphosphate [AZT-TP] | – | 4.73
